Reference: PMC10349806 (Nature Communications, 2023)
Values joined by “and” are separate entries in the source; they are usually repeats but may differ in a detail not shown here. Equal entries are not always repeated. Where two headings read alike, the source gives them in different places.

Assays:
[1] = system: PfCRT variant E207A; assay: Drug uptake assay, oocytes expressing E207A; type: cell-based, Plasmodium falciparum; details: for Km: read-out: KM ± SEM
Experimental: (§1) Site-directed mutagenesis of PfCRT^Dd2 was performed as described using the megaprimer method with overlap extension[21],[54]. The primer pairs used are listed in Supplementary Table 6. Please note that a codon-optimized and oocyte-adapted version of PfCRT^Dd2 was used[22] (Supplementary Fig. 16). The resulting DNA fragment was cloned into the SP64T expression vector and verified by sequencing.
(§2) Oocytes were obtained as described previously. Briefly, adult (>2 years old) female X. laevis frogs (NASCO) were anesthetized in a cooled solution of ethyl 3-amino benzoate methanesulfonate (0.1%, w/v), followed by a surgical removal of parts of the ovary. The ovary lobes were carefully dissected and small pieces of oocytes were incubated in Ca^2+-free ND96 buffer (96 mM NaCl, 2 mM KCl, 1 mM MgCl2 buffered with 5 mM HEPES/NaOH, pH 7.5) supplemented with collagenase D (0.1%, w/v; Roche), BSA (0.5%, w/v), and 9 mm Na2HPO4 at 18 °C for 14-16 h while gentle shaking. After incubation, the oocytes were carefully washed several times with ND96 buffer (96 mM NaCl, 2 mM KCl, 1.8 mM CaCl2, 1 mM MgCl2 buffered with 5 mM HEPES/NaOH, pH 7.5) supplemented with 100 mg l^−1 gentamycin). Defolliculated and healthy-looking stage V-VI oocytes were manually selected for RNA microinjection. The RNA was generated as following: The codon-optimized sequences of PfCRT variants were cloned into the pSP64T expression vector. After vector linearization using the restriction endonucleases BamHI or SalI (New England Biolabs), transcription was performed using the in vitro SP6 mMessage mMachine Kit (Ambion)[34]. The obtained RNA was kept at −80 °C and diluted with nuclease-free water to a concentration of 0.6 μg μl^−1. Precision-bore glass capillary tubes (3.5-inch glass capillaries; Drummond Scientific Co.) were pulled on a vertical puller (P-87 Flaming/Brown micropipette puller, Sutter Instrument Co.), graduated, and placed on a microinjector (Nanoject II Auto-Nanoliter Injector, Drummond Scientific Co.). 50 nl of nuclease-free water alone (control oocytes) or 50 nl of 0.6 μg μl^−1 RNA were injected under stereomicroscopic control. Injected oocytes were incubated for 46–72 h at 18 °C with twice-daily buffer changes before usage in experiments.
Drug uptake assays were performed as described previously[21],[22],[24],[34]. […] The direction of radio-labeled drug transport is here from the mostly acidic extracellular solution (pH 4.5 or 6.0, as indicated) into the oocyte cytosol (pH ∼ 7.2), which corresponds to the efflux of drug from the acidic digestive vacuole (pH 5.2) into the parasite cytoplasm (pH 7.2). The topology of PfCRT in the oolemma is such that both the N- and C-terminus face the extracellular milieu[3],[22]. In the parasite, the N- and C-terminus face the lumen of the digestive vacuole. […] For determination of the amount of drug uptake for each oocyte, the reaction medium was removed and the oocytes were washed three times with 2 ml of ice-cold ND96 buffer. Each oocyte was individually transferred to a scintillation vial containing 5% sodium dodecyl sulfate (200 μl) for lysis. […] Oocytes that were injected with water instead of RNA were analyzed in parallel, representing the uptake of a drug by diffusion and/or endogenous permeation pathways. The resulting value represents the “background“ level of drug accumulation in oocytes (in-depth discussion in[22]). The specific PfCRT-mediated uptake was determined by subtracting the corresponding background value measured in water-injected oocytes from that of PfCRT-expressing oocytes. In all cases, at least three separate experiments were performed on oocytes from different frogs (biological replicate), and for each condition in an experiment, measurements were made from 10 oocytes per treatment. For pH 5.5, 6.0, and 6.5, ND96 was buffered with 5 mM MES/Tris base.

[2] = system: PfCRT variant E207M; assay: CQ uptake assay, oocytes expressing E207M; type: cell-based, Plasmodium falciparum
Experimental: as §1, §2
Drug uptake assays were performed as described previously[21],[22],[24],[34]. […] The direction of radio-labeled drug transport is here from the mostly acidic extracellular solution (pH 4.5 or 6.0, as indicated) into the oocyte cytosol (pH ∼ 7.2), which corresponds to the efflux of drug from the acidic digestive vacuole (pH 5.2) into the parasite cytoplasm (pH 7.2). The topology of PfCRT in the oolemma is such that both the N- and C-terminus face the extracellular milieu[3],[22]. In the parasite, the N- and C-terminus face the lumen of the digestive vacuole. CQ uptake kinetics were performed by incubating oocytes in ND96 buffer adjusted to a pH of 4.5, 5.0, 5.5, or 6.0 and supplemented with 50 nM [^3H]CQ and one of 7 different CQ concentrations (10 µM, 50 µM, 100 µM, 200 µM, 300 µM, 400 µM, 500 µM CQ). The reaction was stopped at the 60 min time point, which is in the linear uptake range[22],[34] (Supplementary Fig. 17). For determination of the amount of drug uptake for each oocyte, the reaction medium was removed and the oocytes were washed three times with 2 ml of ice-cold ND96 buffer. Each oocyte was individually transferred to a scintillation vial containing 5% sodium dodecyl sulfate (200 μl) for lysis. The radioactivity of each sample was measured using a liquid scintillation analyzer Tri-Carb 4910 TR (PerkinElmer). Oocytes that were injected with water instead of RNA were analyzed in parallel, representing the uptake of a drug by diffusion and/or endogenous permeation pathways. The resulting value represents the “background“ level of drug accumulation in oocytes (in-depth discussion in[22]). […]

[3] = 50 µM CQ, 1 h, independent samples
[4] = pH 4.5, individual replicates, Fig 6b
[5] = pH 6.0, individual replicates, Fig 6b
[6] = ratio of activity pH 4.5 / pH 6.0
[7] = E207M, 50 µM CQ, 1 h, mean ± SEM

CCN(CC)CCCC(C)Nc1ccnc2cc(Cl)ccc12 (stereo not drawn) [CQ, chloroquine]
E207A transport activity ([1]; 10 µM CQ, pH 4.5, 60 min): 0.59 pmol oocyte-1 h-1 and 0.34 pmol oocyte-1 h-1 and 0.50 pmol oocyte-1 h-1 | E207A transport activity ([1]; 10 µM CQ, pH 6.0, 60 min): 0.34 pmol oocyte-1 h-1 and 0.28 pmol oocyte-1 h-1 and 0.55 pmol oocyte-1 h-1 and 0.40 pmol oocyte-1 h-1 | E207A transport activity pH 5.0 [1, 3]: 1.89 pmol oocyte-1 h-1 and 1.63 pmol oocyte-1 h-1 | E207A transport activity pH 5.5 [1, 3]: 2.56 pmol oocyte-1 h-1 and 1.58 pmol oocyte-1 h-1 and 2.27 pmol oocyte-1 h-1 | E207A transport activity ([1]; 100 µM CQ, pH 4.5, 60 min): 4.66 pmol oocyte-1 h-1 and 5.17 pmol oocyte-1 h-1 and 4.25 pmol oocyte-1 h-1 and 5.82 pmol oocyte-1 h-1 | E207A transport activity ([1]; 100 µM CQ, pH 6.0, 60 min): 3.91 pmol oocyte-1 h-1 and 5.58 pmol oocyte-1 h-1 and 5.27 pmol oocyte-1 h-1 and 3.70 pmol oocyte-1 h-1 and 4.07 pmol oocyte-1 h-1 and 4.29 pmol oocyte-1 h-1 | E207A transport activity ([1]; 200 µM CQ, pH 4.5, 60 min): 7.55 pmol oocyte-1 h-1 and 5.35 pmol oocyte-1 h-1 and 6.95 pmol oocyte-1 h-1 and 5.93 pmol oocyte-1 h-1 | E207A transport activity ([1]; 200 µM CQ, pH 6.0, 60 min): 5.60 pmol oocyte-1 h-1 and 6.08 pmol oocyte-1 h-1 and 5.00 pmol oocyte-1 h-1 and 8.09 pmol oocyte-1 h-1 and 6.01 pmol oocyte-1 h-1 | E207A transport activity ([1]; 300 µM CQ, pH 4.5, 60 min): 7.51 pmol oocyte-1 h-1 and 7.97 pmol oocyte-1 h-1 and 7.66 pmol oocyte-1 h-1 | E207A transport activity ([1]; 300 µM CQ, pH 6.0, 60 min): 7.48 pmol oocyte-1 h-1 and 7.35 pmol oocyte-1 h-1 and 8.15 pmol oocyte-1 h-1 and 7.49 pmol oocyte-1 h-1 and 7.22 pmol oocyte-1 h-1 | E207A transport activity ([1]; 400 µM CQ, pH 4.5, 60 min): 9.19 pmol oocyte-1 h-1 and 7.30 pmol oocyte-1 h-1 and 9.06 pmol oocyte-1 h-1 | E207A transport activity ([1]; 400 µM CQ, pH 6.0, 60 min): 7.35 pmol oocyte-1 h-1 and 7.71 pmol oocyte-1 h-1 and 9.99 pmol oocyte-1 h-1 and 6.32 pmol oocyte-1 h-1 and 7.81 pmol oocyte-1 h-1 | E207A transport activity ([1]; 500 µM CQ, pH 4.5, 60 min): 6.87 pmol oocyte-1 h-1 and 8.11 pmol oocyte-1 h-1 and 8.95 pmol oocyte-1 h-1 and 9.82 pmol oocyte-1 h-1 | E207A transport activity ([1]; 500 µM CQ, pH 6.0, 60 min): 7.79 pmol oocyte-1 h-1 and 6.89 pmol oocyte-1 h-1 and 7.81 pmol oocyte-1 h-1 and 10.28 pmol oocyte-1 h-1 and 8.00 pmol oocyte-1 h-1 | transport activity at pH 6.0 compared with PfCRT^Dd2 ([1]; E207A, 50 µM CQ): 44% | Vmax ± SEM ([1]; E207A, pH 4.5): 11 ± 1 pmol h^−1 oocyte ^−1 | Km ([1]; E207A, pH 4.5): 180 ± 30 µM | Vmax ± SEM ([1]; E207A, pH 6.0): 11 ± 1 pmol h^−1 oocyte ^−1 | Km ([1]; E207A, pH 6.0): 150 ± 30 µM | Activity at pH 6.0 ([1]; E207A, 50 µM CQ, 1 h, mean ± SEM): 2.24 ± 0.15 pmol h-1 oocyte-1 | R-value ([1]; E207A, CQ transport at pH 4.5 / pH 6.0): 0.9 and 0.89 ± 0.03 | E207A transport activity pH 4.5 ([1]; pH 4.5, individual replicates (Fig 6a)): 1.64 pmol oocyte-1 h-1 and 1.58 pmol oocyte-1 h-1 and 3.29 pmol oocyte-1 h-1 and 2.17 pmol oocyte-1 h-1 and 2.03 pmol oocyte-1 h-1 and 1.48 pmol oocyte-1 h-1 and 2.30 pmol oocyte-1 h-1 and 1.60 pmol oocyte-1 h-1 | E207A transport activity pH 4.5 [1, 4]: 1.64 pmol oocyte-1 h-1 and 1.58 pmol oocyte-1 h-1 and 3.29 pmol oocyte-1 h-1 and 2.17 pmol oocyte-1 h-1 and 2.03 pmol oocyte-1 h-1 and 1.48 pmol oocyte-1 h-1 and 2.30 pmol oocyte-1 h-1 and 1.60 pmol oocyte-1 h-1 | E207A transport activity pH 4.5 ([1]; pH 4.5, single replicates, Fig 1d left): 1.64 pmol oocyte-1 h-1 and 1.58 pmol oocyte-1 h-1 and 3.29 pmol oocyte-1 h-1 and 2.17 pmol oocyte-1 h-1 and 2.03 pmol oocyte-1 h-1 and 1.48 pmol oocyte-1 h-1 and 2.30 pmol oocyte-1 h-1 and 1.60 pmol oocyte-1 h-1 | E207A R-value ([1]; pH 4.5 vs pH 6.0, Fig 1d left): 0.81 and 1.04 and 1.03 and 0.85 and 0.93 and 0.99 and 0.74 | E207A transport activity pH 6.0 ([1]; pH 6.0, individual replicates (Fig 6a)): 2.02 pmol oocyte-1 h-1 and 1.94 pmol oocyte-1 h-1 and 3.16 pmol oocyte-1 h-1 and 2.11 pmol oocyte-1 h-1 and 2.38 pmol oocyte-1 h-1 and 1.75 pmol oocyte-1 h-1 and 2.47 pmol oocyte-1 h-1 and 1.62 pmol oocyte-1 h-1 and 2.39 pmol oocyte-1 h-1 | E207A transport activity pH 6.0 [1, 5]: 2.02 pmol oocyte-1 h-1 and 1.94 pmol oocyte-1 h-1 and 3.16 pmol oocyte-1 h-1 and 2.11 pmol oocyte-1 h-1 and 2.38 pmol oocyte-1 h-1 and 1.75 pmol oocyte-1 h-1 and 2.47 pmol oocyte-1 h-1 and 1.62 pmol oocyte-1 h-1 and 2.39 pmol oocyte-1 h-1 | E207A transport activity pH 6.0 ([1]; pH 6.0, single replicates, Fig 1d left): 2.02 pmol oocyte-1 h-1 and 1.94 pmol oocyte-1 h-1 and 3.16 pmol oocyte-1 h-1 and 2.11 pmol oocyte-1 h-1 and 2.38 pmol oocyte-1 h-1 and 1.75 pmol oocyte-1 h-1 and 2.47 pmol oocyte-1 h-1 and 1.62 pmol oocyte-1 h-1 and 2.39 pmol oocyte-1 h-1 | E207A R-value [1, 6]: 0.81 and 1.04 and 1.03 and 0.85 and 0.93 and 0.99 and 0.74 | E207A R-value ([1]; transport activity pH 4.5 relative to pH 6.0 (Fig 6a)): 0.81 and 1.04 and 1.03 and 0.85 and 0.93 and 0.99 and 0.74 | Activity at pH 4.5 [2, 7]: 1.85 ± 0.27 pmol h-1 oocyte-1 | Activity at pH 6.0 [2, 7]: 2.24 ± 0.41 pmol h-1 oocyte-1 | R-value ([2]; E207M, CQ transport at pH 4.5 / pH 6.0): 0.85 ± 0.02 | E207M transport activity pH 4.5 [2, 4]: 1.39 pmol oocyte-1 h-1 and 1.26 pmol oocyte-1 h-1 and 2.26 pmol oocyte-1 h-1 and 2.48 pmol oocyte-1 h-1 | E207M transport activity pH 6.0 [2, 5]: 1.61 pmol oocyte-1 h-1 and 1.40 pmol oocyte-1 h-1 and 2.48 pmol oocyte-1 h-1 and 3.48 pmol oocyte-1 h-1 | E207M R-value [2, 6]: 0.86 and 0.90 and 0.91 and 0.71
